Read-outs that look alike come from different tables or passages of the source.
Tests used:
Wee-1 kinase = target: T1, Wee-1 kinase (Homo sapiens, UniProt P30291); experiment: Measurement of Wee-1 kinase activity (ADP-Glo luminescent kit); type: biochemical
T1 construct: purchased Invitrogen PV3817
Procedure, shortened: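 Activated Wee-1 was pre-incubated 30 min at RT with compound in 40 mM Tris-HCl, 20 mM MgCl2, 0.1 mg/mL BSA and 2 mM DTT. The reaction was started with an aliquot of 2.0 μg/mL poly(Lys,Tyr 4:1) plus 30 μM ATP and run 1 h at RT. ADP-Glo luminescence gave IC50 by non-linear fit.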

[1] = system: phospho-cdc2 (Tyr15) in HT-29 cells; experiment: Effect on Cdc2 phosphorylation at Tyr15, Cell-Based ELISA Base Kit (Method 3); details: eight hours incubation, normalized to total cdc2, read-out: HT29 pCDC2 method 3
Method: Method 3: Determining the Effect of Compounds on the Cdc2 phosphorylation at Tyr15, using a Cell-Based ELISA Base Kit (R&D Systems, KCB001)
The colorectal cancer cell line, HT-29 was purchased from the ATCC and maintained in McCoy's 5 A medium (Gibco®, Life technologies) supplemented with 10% Foetal Calf Serum (FCS).
The cells were trypsinised and counted, 100 μL of 8000 cells was seeded into each well of a clear-bottom black 96-well microplate and incubated overnight to allow adherence to the surface, at 37° C. and 5% CO2 in a cell culture incubator.
Test compounds were formulated in DMSO and diluted in cell culture medium supplemented with FCS. Grow medium was removed from cells and medium containing compounds dilutions was added to each well. The plate was returned to the incubator for an additional eight hours of incubation at 37° C. and 5% CO2.
Post incubation cells were fixed by replacing the compounds supplemented medium with 100 μL of 4% formaldehyde in 1× phosphate buffered saline (PBS), for 20 minutes at room temperature. Formaldehyde solution was removed and cells were washed three times with PBS. The Cell-Based ELISA assay (R&D Systems) was carried out immediately after cell fixation or the plate was sealed and fixed cells were stored in PBS at 4° C. until required (no more than two weeks).
To continue the assay, PBS was removed and cells were washed 3 times for 5 minutes with 200 μL of 1× wash buffer. Each wash step was carried out with gentle shaking. Following washes, 100 μL of 0.6% H2O2 in 1× wash buffer (quenching buffer) was added, plate was sealed and incubated for 20 minutes at room temperature. Post incubation cells were washes 3 times for 5 minutes with 200 μL of 1× wash buffer, with gentle shaking. 100 μL of blocking buffer was added to each well, the plate was re-sealed and incubated at room temperature for 1 h.
After blocking, cells were washed as described above. A primary antibody mixture was prepared by mixing the two primary antibodies, a rabbit monoclonal antibody for phospho-cdc2 (Tyr15) (Cell Signaling, #4539) and mouse monoclonal antibody for total cdc2 p34 (Santa Cruz Biotechnology, sc-54), diluted 1:25 and 1:50 in blocking buffer, respectively. 60 μL of primary antibody mixture was added to each well, the plate was sealed and incubated overnight at 4° C.
The primary antibodies were removed and cells were washed as previously described. 100 μL of secondary antibody mixture, containing horseradish-peroxidase (HRP)-conjugated goat anti-rabbit IgG and alkaline phosphatase (AP)-conjugated goat anti-mouse IgG, diluted 1:100 in blocking buffer, was added to each test well. The plate was re-sealed and incubated for 2 hours at room temperature.
The secondary antibodies were removed and cells washed 2 times with wash buffer, followed by 2 washes with PBS. Each wash step was carried out for 5 minutes with gentle shaking. PBS was removed and 75 μL of fluorogenic substrate for HRP (substrate F1) added to each well. The plate was sealed and incubated for 1 h at room temperature, in the dark. 75 μL of fluorogenic substrate for AP (substrate F2) was added directly to each well, plate re-sealed and incubated for additional 40 minutes at room temperature, protected from direct light.
Following incubation fluorescence from each well was read at 600 nm (signal from substrate 1, phosphorylated protein) and then at 450 nm (signal from substrate 2, total protein).
The percentage of phospho-cdc2 was calculated compared to DMSO control, normalized to the total cdc2 and plotted versus the concentration of inhibitor, using GraphPad Prism. Data was fitted using a non-linear regression analysis and EC50 values generated.

[2] = CLint estimates using human liver microsomes (Method 4); type: in vitro ADME; details: pH 7.4, 1 μM compound, read-out: Mics - CLint (HLM CLint)
Procedure, shortened: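 Compound at 1 μM (0.1% DMSO) incubated with human liver microsomes (0.5 mg protein/mL) in 0.1 M phosphate pH 7.4 at 37 °C, started with 1 mM NADPH. Samples taken 2–50 min, quenched in methanol, measured by LC/MS/MS (MRM). Half-life and CLint derived from the slope of ln peak area versus time.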

T1 sequence (P30291 whole entry): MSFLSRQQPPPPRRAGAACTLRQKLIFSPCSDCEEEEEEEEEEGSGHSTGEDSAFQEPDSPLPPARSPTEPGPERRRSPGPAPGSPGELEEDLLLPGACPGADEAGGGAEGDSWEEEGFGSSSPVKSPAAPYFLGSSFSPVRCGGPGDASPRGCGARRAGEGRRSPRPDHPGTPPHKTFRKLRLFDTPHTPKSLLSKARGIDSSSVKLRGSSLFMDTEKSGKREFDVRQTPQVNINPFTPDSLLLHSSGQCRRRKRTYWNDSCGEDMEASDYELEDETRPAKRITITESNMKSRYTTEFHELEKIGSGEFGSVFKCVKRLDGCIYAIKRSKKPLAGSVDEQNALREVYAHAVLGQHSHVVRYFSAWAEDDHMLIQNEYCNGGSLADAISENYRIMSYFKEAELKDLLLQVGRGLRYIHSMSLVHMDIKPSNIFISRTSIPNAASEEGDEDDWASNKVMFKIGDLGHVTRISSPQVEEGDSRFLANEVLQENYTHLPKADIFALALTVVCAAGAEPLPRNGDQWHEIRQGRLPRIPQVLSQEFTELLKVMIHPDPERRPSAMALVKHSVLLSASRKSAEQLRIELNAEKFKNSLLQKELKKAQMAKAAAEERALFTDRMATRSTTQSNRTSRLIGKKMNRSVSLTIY

COC[C@H]1CN(c2ccc(Nc3ncc4c(n3)N(C)CN(c3c(Cl)cccc3Cl)C4=O)cc2C(O)C(F)F)CCN1 (single isomer, unassigned) [Example 162]
IC50 (Wee-1 kinase): ≤ 10 nM
EC50 ([1]; Homo sapiens, HT-29, 8 h): 100 to 1000 nM
microsomal CLint at 1 μM [2]: 15 to 50 µL/min/mg

COC[C@H]1CN(c2ccc(Nc3ncc4c(n3)N(C)CN(c3c(Cl)cccc3Cl)C4=O)cc2C(O)C(F)F)CCN1 (single isomer, unassigned) [Example 163]
IC50 (Wee-1 kinase): ≤ 10 nM
EC50 [1]: 100 to 1000 nM

COC[C@H]1CN(c2ccc(Nc3ncc4c(n3)N(C)CN(c3c(Cl)cccc3Cl)C4=O)cc2C(O)C(F)(F)F)CCN1 (single isomer, unassigned) [Example 184]
IC50 (Wee-1 kinase): ≤ 10 nM
EC50 [1]: ≥ 1000 nM

COC[C@H]1CN(c2ccc(Nc3ncc4c(n3)N(C)CN(c3c(Cl)cccc3Cl)C4=O)cc2C(O)C(F)(F)F)CCN1 (single isomer, unassigned) [Example 185]
IC50 (Wee-1 kinase): ≤ 10 nM
EC50 [1]: 100 to 1000 nM

CN1CCN(c2ccc(Nc3ncc4c(n3)N(C)CN(c3c(Cl)cccc3Cl)C4=O)cc2CO)CC1 [Example 33, 3-(2,6-dichlorophenyl)-7-((3-(hydroxymethyl)-4-(4-methylpiperazin-1-yl)phenyl)amino)-1-methyl-2,3-dihydropyrimido[4,5-d]pyrimidin-4(1H)-one]
IC50 (Wee-1 kinase): ≤ 10 nM
EC50 ([1]; Homo sapiens, HT-29, 8 h): 100 to 1000 nM
microsomal CLint at 1 μM [2]: 15 to 50 µL/min/mg

C[C@@H]1CN(c2ccc(Nc3ncc4c(n3)N(C)CN(c3ccccc3Cl)C4=O)cc2)C[C@H](C)N1 [Example 103, 3-(2-chlorophenyl)-7-((4-((3S,5R)-3,5-dimethylpiperazin-1-yl)phenyl)amino)-1-methyl-2,3-dihydropyrimido[4,5-d]pyrimidin-4(1H)-one]
IC50 (Wee-1 kinase): 10 to 100 nM
EC50 ([1]; Homo sapiens, HT-29, 8 h): 100 to 1000 nM

CNCc1cc(Nc2ncc3c(n2)N(C)CN(c2c(Cl)cccc2Cl)C3=O)ccc1-c1cnn(C)c1 [Example 160, 3-(2,6-dichlorophenyl)-1-methyl-7-((4-(1-methyl-1H-pyrazol-4-yl)-3-((methylamino)methyl)phenyl)amino)-2,3-dihydropyrimido[4,5-d]pyrimidin-4(1H)-one]
IC50 (Wee-1 kinase): 10 to 100 nM
EC50 ([1]; Homo sapiens, HT-29, 8 h): ≥ 1000 nM

CN1CN(c2c(Cl)cccc2Cl)C(=O)c2cnc(Nc3ccc(N4C[C@@H]5C[C@H]4CN5)c(CO)c3)nc21 [Example 164, 7-((4-((1S,4S)-2,5-diazabicyclo[2.2.1]heptan-2-yl)-3-(hydroxymethyl)phenyl)amino)-3-(2,6-dichlorophenyl)-1-methyl-2,3-dihydropyrimido[4,5-d]pyrimidin-4(1H)-one]
IC50 (Wee-1 kinase): ≤ 10 nM
EC50 ([1]; Homo sapiens, HT-29, 8 h): ≥ 1000 nM

CN1CN(c2c(Cl)cccc2Cl)C(=O)c2cnc(Nc3ccc4c(c3)C3CCC4N3)nc21 (stereo not drawn) [Example 166, 3-(2,6-dichlorophenyl)-1-methyl-7-((1,2,3,4-tetrahydro-1,4-epiminonaphthalen-6-yl)amino)-2,3-dihydropyrimido[4,5-d]pyrimidin-4(1H)-one]
IC50 (Wee-1 kinase): 10 to 100 nM
EC50 ([1]; Homo sapiens, HT-29, 8 h): ≥ 1000 nM

O=C1c2cnc(Nc3ccc(N4CCNCC4)cc3)nc2N(c2ccccc2)CN1c1c(Cl)cccc1Cl [Example 171, 3-(2,6-dichlorophenyl)-1-phenyl-7-((4-(piperazin-1-yl)phenyl)amino)-2,3-dihydropyrimido[4,5-d]pyrimidin-4(1H)-one]
IC50 (Wee-1 kinase): ≤ 10 nM
EC50 ([1]; Homo sapiens, HT-29, 8 h): 100 to 1000 nM

CN(C)CC(O)c1cccc(Nc2ncc3c(n2)N(C)CN(c2c(Cl)cccc2Cl)C3=O)c1 (stereo not drawn) [Example 172, 3-(2,6-dichlorophenyl)-7-((3-(2-(dimethylamino)-1-hydroxyethyl)phenyl)amino)-1-methyl-2,3-dihydropyrimido[4,5-d]pyrimidin-4(1H)-one]
IC50 (Wee-1 kinase): 10 to 100 nM
EC50 ([1]; Homo sapiens, HT-29, 8 h): ≥ 1000 nM

CN1CN(c2c(Cl)cccc2Cl)C(=O)c2cnc(Nc3ccc(N4CC5COCC(C4)N5)c(CO)c3)nc21 [Example 173, 7-((4-(3-oxa-7,9-diazabicyclo[3.3.1]nonan-7-yl)-3-(hydroxymethyl)phenyl)amino)-3-(2,6-dichlorophenyl)-1-methyl-2,3-dihydropyrimido[4,5-d]pyrimidin-4(1H)-one]
IC50 (Wee-1 kinase): 10 to 100 nM
EC50 ([1]; Homo sapiens, HT-29, 8 h): 100 to 1000 nM

CCNCc1cc(Nc2ncc3c(n2)N(C)CN(c2c(Cl)cccc2Cl)C3=O)ccc1N1CCOCC1 [Example 174, 3-(2,6-dichlorophenyl)-7-((3-((ethylamino)methyl)-4-morpholinophenyl)amino)-1-methyl-2,3-dihydropyrimido[4,5-d]pyrimidin-4(1H)-one]
IC50 (Wee-1 kinase): 10 to 100 nM
EC50 ([1]; Homo sapiens, HT-29, 8 h): ≥ 1000 nM

CN1CN(c2c(Cl)cccc2Cl)C(=O)c2cnc(Nc3ccc4c(c3)C3CCC4N3C)nc21 (stereo not drawn) [Example 175, 3-(2,6-dichlorophenyl)-1-methyl-7-((9-methyl-1,2,3,4-tetrahydro-1,4-epiminonaphthalen-6-yl)amino)-2,3-dihydropyrimido[4,5-d]pyrimidin-4(1H)-one]
IC50 (Wee-1 kinase): ≤ 10 nM
EC50 ([1]; Homo sapiens, HT-29, 8 h): 100 to 1000 nM

CN1CN(c2c(Cl)cccc2Cl)C(=O)c2cnc(Nc3ccc(N4C[C@@H]5C[C@H]4CN5C)c(CO)c3)nc21 [Example 176, 3-(2,6-dichlorophenyl)-7-((3-(hydroxymethyl)-4-((1S,4S)-5-methyl-2,5-diazabicyclo[2.2.1]heptan-2-yl)phenyl)amino)-1-methyl-2,3-dihydropyrimido[4,5-d]pyrimidin-4(1H)-one]
IC50 (Wee-1 kinase): ≤ 10 nM
EC50 ([1]; Homo sapiens, HT-29, 8 h): 100 to 1000 nM

Cc1cc(Nc2ncc3c(n2)N(C)CN(c2c(Cl)cccc2Cl)C3=O)ccc1C1=CCNCC1 [Example 177, 3-(2,6-dichlorophenyl)-1-methyl-7-((3-methyl-4-(1,2,3,6-tetrahydropyridin-4-yl)phenyl)amino)-2,3-dihydropyrimido[4,5-d]pyrimidin-4(1H)-one]
IC50 (Wee-1 kinase): ≤ 10 nM
EC50 ([1]; Homo sapiens, HT-29, 8 h): 100 to 1000 nM

Cc1cc(Nc2ncc3c(n2)N(C)CN(c2c(Cl)cccc2Cl)C3=O)ccc1C1=CCN(C)CC1 [Example 178, 3-(2,6-dichlorophenyl)-1-methyl-7-((3-methyl-4-(1-methyl-1,2,3,6-tetrahydropyridin-4-yl)phenyl)amino)-2,3-dihydropyrimido[4,5-d]pyrimidin-4(1H)-one]
IC50 (Wee-1 kinase): ≤ 10 nM
EC50 ([1]; Homo sapiens, HT-29, 8 h): 100 to 1000 nM

CN1CN(c2c(Cl)cccc2Cl)C(=O)c2cnc(Nc3ccc(C4=CCNCC4)c(CO)c3)nc21 [Example 179, 3-(2,6-dichlorophenyl)-7-((3-(hydroxymethyl)-4-(1,2,3,6-tetrahydropyridin-4-yl)phenyl)amino)-1-methyl-2,3-dihydropyrimido[4,5-d]pyrimidin-4(1H)-one]
IC50 (Wee-1 kinase): ≤ 10 nM
EC50 ([1]; Homo sapiens, HT-29, 8 h): ≥ 1000 nM

CN1CC=C(c2ccc(Nc3ncc4c(n3)N(C)CN(c3c(Cl)cccc3Cl)C4=O)cc2CO)CC1 [Example 180, 3-(2,6-dichlorophenyl)-7-((3-(hydroxymethyl)-4-(1-methyl-1,2,3,6-tetrahydropyridin-4-yl)phenyl)amino)-1-methyl-2,3-dihydropyrimido[4,5-d]pyrimidin-4(1H)-one]
IC50 (Wee-1 kinase): ≤ 10 nM
EC50 ([1]; Homo sapiens, HT-29, 8 h): 100 to 1000 nM

CN1CN(c2c(Cl)cccc2Cl)C(=O)c2cnc(Nc3ccc(C4CCN(C5CCC5)CC4)c(CO)c3)nc21 [Example 181, 7-((4-(1-cyclobutylpiperidin-4-yl)-3-(hydroxymethyl)phenyl)amino)-3-(2,6-dichlorophenyl)-1-methyl-2,3-dihydropyrimido[4,5-d]pyrimidin-4(1H)-one]
IC50 (Wee-1 kinase): ≤ 10 nM
EC50 ([1]; Homo sapiens, HT-29, 8 h): 100 to 1000 nM

Source: patent US9850247B2 (Almac Discovery Limited, priority 2013, dated 2017)
